Measurements from patent publication US20130324508A1, “BIOMARKER FOR PROSTATE CANCER AND METHOD OF USING THE SAME” (UNIVERSITY OF TENNESSEE RESEARCH FOUNDATION, priority 2012, published 2013).
Each block holds one compound with its values, some of them ahead of it. Ends that are not written are not given here.

What was measured:
PC-3 cells = PC-3 cells treated with ERK pathway inhibitor; cited from earlier work
GPRC6A = experiment: ERK activation in HEK-293 cells transfected with GPRC6A (Western blot); type: cell-based; details: HEK-293 overexpressing GPRC6A; 5 min; calcium 1-20 mM, zinc 0.2-0.8 mM, OC 5-60 ng/ml, arginine 5-30 mM, testosterone-BSA 5-100 nM; FIG. 2A
Experimental: (§1) Briefly, human prostate cancer cells and the cells transfected with GPRC6A will be made quiescent by overnight incubation in serum-free DMEM/F12 containing 0.1% BSA and stimulated with various ligands at different doses. ERK activation will be assessed 5 to 30 minutes after treatment by immunoblotting using anti-phospho-ERK1/2 MAP kinase antibody (Cell Signaling Technology) corrected for the amount of ERK using an anti-ERK1/2 MAP Kinase antibody (Cell Signaling Technology) to measure ERK levels.
(§2) Referring to FIG. 2. […] Here, calcium (1-20 mM), zinc (0.2-0.8 mM), OC (5-60 ng/ml), arginine (5-30 mM), and testosterone-BSA (5-100 nM) are confirmed to be functional ligands for GPRC6A (16-17, 19). […] Calcium (10 mM), zinc (0.2 mM), OC (20 ng/ml), arginine (20 mM), and testosterone-BSA (60 nM) increased phospho-ERK in both of these cells. The HEK cells transfected with GPRC6A or without the plasmid cDNA of GPRC6A or 22Rv1 or PC-3 were incubated in Dulbecco's modified Eagle's medium/F-12 containing 0.1% bovine serum albumin quiescence media and exposed to the extracellular calcium, OC, arginine, or testosterone-BSA at indicated concentrations for 5 min, and ERK activation was determined as described under Materials and Methods. Representative blots are shown, and the results were verified in at least three independent experiments.

[1] = test system: non-transfected HEK-293 cells; experiment: ERK activation in non-transfected HEK-293 cells (Western blot); type: cell-based; details: same ligand concentrations, 5 min
Experimental: as §1, §2

22Rv1 or PC-3 = experiment: Cell proliferation by hemocytometer cell count; type: cell-based, human; details: 22Rv1 or PC-3, 72 h culture, versus control without added ligand; FIG. 3
Experimental: The prostate cancer cell lines 22Rv1, PC-3 and LNcaP and the prostate cell lined RWPE-1 derived from normal prostate were obtained from the American Type Culture Collection (Manassas, Va.). The prostate cells were maintained in RPMI 1640 supplemented with 10% fetal bovine serum (Gibco Life Technologies, Inc.). Cells (10^3 cells/well) were cultured in triplicate in a 96-well flat-bottomed microculture dish using RPMI 1640 containing 10% CFBS in the presence and absence of various concentrations of GPRC6A ligands, including: calcium, amino acids, calcimimetic and OC for 72 h. Cell proliferation was determined by counting cells with a hemocytometer (21).
Now referring to FIG. 3. To determine if GPRC6A ligands enhance prostate cell growth, changes were accessed in cell numbers in 22Rv1 and PC-3 cells exposed to different concentrations of extracellular calcium or OC over a three-day culture period. […] Cell proliferation was determined by counting cells in a hemocytometer method as described in Materials and methods. In all of the above studies, values for relative cell proliferation (expressed as percent of control) represent the mean±SEM of a minimum of three separate experiments. * indicates a significant difference from control and stimulation at p<0.05, respectively.

22Rv1 [2] = experiment: ERK activation in 22Rv1 prostate cancer cells (Western blot); type: cell-based, human; details: 22Rv1 (androgen receptor positive); calcium 10 mM, zinc 0.2 mM, OC 20 ng/ml, arginine 20 mM, testosterone-BSA 60 nM; 5 min; FIG. 2B
Experimental: as §1, §2
(§3) To confirm the importance of GPRC6A signaling in prostate cancer cell line, the response to GPRC6A ligands was accessed after knock-down of GPRC6A using siRNA. For these studies, ERK activity was assessed in 22Rv1 and PC-3 cells stably transfected with GPRC6A siRNA-202 and siRNA-514. These responses were compared control groups consisting of mock-transfected cells and transfected cells with a random negative control siRNA plasmid.

PC-3 [3] = experiment: ERK activation in PC-3 prostate cancer cells (Western blot); type: cell-based, human; details: PC-3 (androgen receptor negative); calcium 10 mM, zinc 0.2 mM, OC 20 ng/ml, arginine 20 mM, testosterone-BSA 60 nM; 5 min; FIG. 2B
Experimental: as §1, §2, §3

22Rv1 [4] = experiment: Chemotaxis assay of 22Rv1 cells; type: cell-based, human; details: migration toward calcium or OC, various concentrations; FIG. 6C
Experimental: The migration of 22Rv1 cells stably expressing negative control siRNA and human GPRC6A-specific siRNA using a previously described chemotaxis assay (22). The migration index was calculated, and was defined as number of cells crossing the filter toward calcium or OC (various concentrations)/number of cells migrating toward medium alone (control). Each experiment was performed at least three times, in duplicate.
Now referring to FIG. 6. To assess whether GPRC6A mediates prostate cancer cells chemotaxis and metastases, the ability of calcium and OC to evoke chemotaxis of human prostate cancer cell 22Rv1 expressing GPRC6A was examined. The ligands of GPRC6A, OC, arginine and R1881 stimulated gene expression of PSA (FIG. A) and Runx2 (FIG. B) were attenuated by GPRC6A siRNA in 22Rv1, human prostate cancer cells. […] The experiments were described in Materials and methods. In all of the above studies, values for relative cell proliferation (expressed as percent of control) represent the mean±SEM of a minimum of three separate experiments.

LNCaP = details: androgen-dependent LNCaP cells; cited from earlier work
DU145 = details: androgen-independent DU145 cells; cited from earlier work
PC-3 [5] = details: androgen-independent PC-3 cells; cited from earlier work
22Rv1 [6] = experiment: PSA and Runx 2II gene expression in 22Rv1 cells (real time RT-PCR); type: cell-based, human; details: 22Rv1, 8 hours stimulation, OC 80 ng/ml, arginine 30 mM, R1881 100 nM
Experimental: (§4) Human tissue cDNAs were obtained from Clontech Laboratories, Inc. Total RNA from human prostate cancer cells was isolated with RNeasy Mini Kit (Qiagen Inc., Valencia, Calif.). RT-PCR was done using two-step RNA PCR (Perkin-Elmer). In separate reactions, 2.0 μg of DNase-treated total RNA was reverse-transcribed into cDNA with the respective reverse primers specified below and Moloney murine leukemia virus reverse transcriptase (Gibco Life Technologies, Inc.). Reactions were carried out at 42° C. for 60 min followed by 94° C. for 5 min and 5° C. for 5 min. The products of first-strand cDNA synthesis were directly amplified by PCR using AmpliTaq DNA polymerase (Perkin-Elmer). The primers for human GPRC6A are as follows: hGPRC6A.F203: […] (SEQ ID NO: 1) and hGPRC6A.R630: […] (SEQ ID NO: 2). For housekeeping gene control G3PDH gene, G3PDH.F143: […] (SEQ ID NO: 3) and G3PDH.R1050: […] (SEQ ID NO: 4). For quantitative real time RT-PCR assessment of PSA and Runx 2II genes expression, total RNA was isolated and reverse transcribed from 22Rv1 cells that stimulated with or without OC (80 ng/ml), arginine (30 mM) and R1881 (100 nM) as previously described using specific primer sets. The primers sequences were PSA. For: […] (SEQ ID NO: 5) and PSA.Rev: […] (SEQ ID NO: 6); Runx 2. For: […] (SEQ ID NO: 7) and Runx 2. Rev: […] (SEQ ID NO: 8), and the threshold cycle (Ct) of tested-gene product from the indicated genotype was normalized to the Ct for cyclophilin A as previously described (18).
(§5) After 8 hours stimulation, OC, arginine and R1881 stimulated PSA and Runx 2II gene expression in human prostate cancer 22Rv1 (FIG. 4A and FIG. 4B) and PC-3 cells (FIG. 4C and FIG. 4D). * indicates a significant difference from control and stimulation at p<0.05 respectively.
To investigate whether the observed ligand-induced PSA and Runx2 gene expression in the prostate cancer cells is due to simulation of GPRC6A, the response to GPRC6A ligands was examined after knock-down of GPRC6A. ERK activity was assessed in 22Rv1 stably transfected with GPRC6A siRNA-514 and compared this response to transfected cells with a random negative control siRNA plasmid, which were used as controls.

PC-3 [7] = experiment: PSA and Runx 2II gene expression in PC-3 cells (real time RT-PCR); type: cell-based, human; details: 8 hours stimulation
Experimental: as §4, §5

[8] = biological target: Human GPRC6A, endogenous in human prostate cancer cell lines 22Rv1 and PC-3 (human) (UniProt Q5T6X5); experiment: cell-based or functional assay
Sequence of UniProt Q5T6X5 (Q5T6X5 19-926): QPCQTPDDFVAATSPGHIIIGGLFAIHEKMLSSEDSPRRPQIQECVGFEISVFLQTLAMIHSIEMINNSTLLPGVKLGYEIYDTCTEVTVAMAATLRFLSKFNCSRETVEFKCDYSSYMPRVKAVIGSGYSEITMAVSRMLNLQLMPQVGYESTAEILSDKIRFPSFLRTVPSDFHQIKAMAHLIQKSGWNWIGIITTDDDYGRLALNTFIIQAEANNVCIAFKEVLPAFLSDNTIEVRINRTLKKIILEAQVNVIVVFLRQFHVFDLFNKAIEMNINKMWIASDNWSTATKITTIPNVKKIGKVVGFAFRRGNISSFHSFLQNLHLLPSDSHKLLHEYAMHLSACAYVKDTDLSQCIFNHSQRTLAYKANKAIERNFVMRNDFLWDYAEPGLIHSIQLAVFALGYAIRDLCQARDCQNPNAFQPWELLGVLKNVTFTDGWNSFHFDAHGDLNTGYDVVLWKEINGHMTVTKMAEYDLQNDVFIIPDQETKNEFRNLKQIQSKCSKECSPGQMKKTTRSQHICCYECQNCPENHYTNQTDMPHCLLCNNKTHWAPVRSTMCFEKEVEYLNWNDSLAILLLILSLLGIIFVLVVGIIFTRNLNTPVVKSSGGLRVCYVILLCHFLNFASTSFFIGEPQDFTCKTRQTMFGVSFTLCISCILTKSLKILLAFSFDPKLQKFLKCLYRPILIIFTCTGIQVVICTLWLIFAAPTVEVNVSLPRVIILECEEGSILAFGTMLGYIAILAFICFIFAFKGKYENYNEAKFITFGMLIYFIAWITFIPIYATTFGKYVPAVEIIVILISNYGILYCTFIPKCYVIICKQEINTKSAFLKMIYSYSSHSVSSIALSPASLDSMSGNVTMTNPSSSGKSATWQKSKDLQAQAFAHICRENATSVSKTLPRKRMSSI

Compound: COc1cccc(-c2cc(=O)c3ccccc3o2)c1N [PD98059]
growth-factor-mediated cell proliferation (PC-3 cells): obliterates

Compound: [Ca+2].[Cl-].[Cl-] [calcium, calcium chloride]
stimulation of ERK activity (GPRC6A): dose-dependent stimulation
ERK response [1]: failed to respond
increase in cell number (22Rv1 or PC-3): ~30%
phospho-ERK (22Rv1 [2]): increased
phospho-ERK (PC-3 [3]): increased
chemotaxis of 22Rv1 prostate cancer cells (22Rv1 [4]): induced the chemotaxis

Compound: C[N+](C)(C)CCOC(N)=O [carbachol]
ERK phosphorylation (LNCaP): not
ERK phosphorylation (DU145): ERK phosphorylation is noted
ERK phosphorylation (PC-3 [5]): ERK phosphorylation is noted

Compound: OC: Osteocalcin (purified from bovine bone), vitamin-K dependent hormone, GPRC6A ligand (YLDHWLGAPAPYPDPLEPKREVCELNPDCDELADHIGFQEAYRRFYGPV; ends and bridges not checked; cysteine pairing not given here; UniProt P02820 52-100, looked up)
PSA gene expression (22Rv1 [6]; FIG. 4A): stimulated
Runx 2II gene expression (22Rv1 [6]; FIG. 4B): stimulated
stimulation of ERK activity (GPRC6A): dose-dependent stimulation
ERK response [1]: failed to respond
increase in cell number (22Rv1 or PC-3): ~70%
phospho-ERK (22Rv1 [2]): increased
phospho-ERK (PC-3 [3]): increased
chemotaxis of 22Rv1 prostate cancer cells (22Rv1 [4]): induced the chemotaxis
PSA gene expression (PC-3 [7]; FIG. 4C): stimulated
Runx 2II gene expression (PC-3 [7]; FIG. 4D): stimulated

cell number after 72 h culture of 22Rv1 and PC-3 cells with OC [8]: 70%
Compound: Osteocalcin (purified from bovine bone) (from UniProt P02820 52-100) (ligand)
